The structures appear in SMILES notation. Values after ≈ are worked out from the molar mass of the structure shown. Read-outs that look alike come from different tables or passages of the source.

In one data set the test system is H. felis ATCC 49179. To be noted: for Eradication of H. felis in the mouse model, monotherapy: therapeutically used doses; for Clearance % / Clearance (animals cleared / animals per group): infected mice, 2 × 10 mg/kg, 70 day treatment as printed in table title (7 days elsewhere in the source), 5 animals per group. The protocol: The bacteria are administered by stomach tube as a suspension (0.1 ml containing 10^8-10^9 bacteria) 4 times in the course of 7 days. Alternatively to this, stomach homogenates of previously infected mice were used for infection.
3-5 days after establishment of the infection, the treatment with test preparations was begun. […] In some cases, the bacterial eradication was also determined 2-4 weeks after the end of treatment. Following the “CLO” test used in clinical diagnosis, a urease test on a microtitre basis was employed. Defined stomach biopsy samples were tested for colour change within 24 hours.

For another data set, the system named is H. pylori NCTC 1163 7. Description: MIC, agar dilution test. To be noted: Helicobacter pylori. The class given is cell-based. On the procedure:
. The test substances were tested in replica dishes, which contained falling concentrations of the active compound at in each case doubled dilution. For inoculation, fresh Helicobacter cultures from liquid culture or suspension of the bacteria from agar plates were used. The inoculated agar plates were incubated at 37° C. in an atmosphere containing 5-10% of CO2 for 48-72 hours. The MIC value (mg/l) which was read off indicates the lowest active compound concentration at which no growth was to be detected using the naked eye. The following Helicobacter isolates were used: H. felis ATCC 49179, H. pylori NCTC 1163 7, H. pylori clinical isolate 008.

Data set [1] relates to H. pylori clinical isolate 008. Kind of data set: MIC, agar dilution test. To be noted: Helicobacter pylori, Columbia agar or Basis 2 agar with 10% lysed horse blood, 37° C., 48-72 hours, read-out: MIC (mg/l) H. pylori 008. Type of data set: cell-based. On the procedure: For inoculation, fresh Helicobacter cultures from liquid culture or suspension of the bacteria from agar plates were used. The inoculated agar plates were incubated at 37° C. in an atmosphere containing 5-10% of CO2 for 48-72 hours.

Setting [2] is: NCTC1163, agar dilution test, Columbia agar or Basis 2 agar with 10% lysed horse blood, 37° C., 48-72 hours, read-out: MIC (mg/l) H. pylori 11637.

Broadly, the melting point is the temperature of the solid-liquid transition. In the case of `Cl.O=C(O)c1cn([C@@H]2C[C@@H]2F)c2c(F)c(N3C[C@@H]4NCCO[C@@H]4C3)c(F)cc2c1=O`, the melting point is 275 to 280 °C (dec.).

Consider `Cl.O=C(O)c1cn([C@@H]2C[C@@H]2F)c2c(Cl)c(N3C[C@@H]4NCCO[C@@H]4C3)c(F)cc2c1=O`, for which the melting point was 210 to 215 °C (dec.).

For the compound `O=C(O)c1cn([C@@H]2C[C@@H]2F)c2cc(N3C[C@@H]4NCCO[C@@H]4C3)c(F)cc2c1=O` (mixture of isomers) [Example 15, 6-Fluoro-1-(cis-2-fluorocyclopropyl)-1,4-dihydro-7-((1R,6S)-2-oxa-5,8-diazabicyclo[4.3.0]non-8-yl)-4-oxo-3-quinolinecarboxylic acid], the melting point was 236 to 238 °C (dec.). For the compound `O=C(O)c1cn([C@@H]2C[C@H]2F)c2cc(N3C[C@@H]4NCCO[C@@H]4C3)c(F)cc2c1=O` (mixture of isomers) [Example 19, 6-Fluoro-1-(trans-2-fluorocyclopropyl)-1,4-dihydro-7-((1 R,6S)-2-oxa-5,8-diazabicyclo[4.3.0]non-8-yl)-4-oxo-3-quinolinecarboxylic acid], the melting point is 270 to 274 °C (dec.). The same measure, in the same setting: in the case of `O=C(O)c1cn([C@@H]2C[C@H]2F)c2c(Cl)c(N3C[C@@H]4NCCO[C@@H]4C3)c(F)cc2c1=O` (mixture of isomers) [Example 20, 8-Chloro-6-fluoro-1-(trans-2-fluorocyclopropyl)-1,4-dihydro-7-((1R,6S)-2-oxa-5,8-diazabicyclo[4.3.0]non-8-yl)-4-oxo-3-quinolinecarboxylic acid] it was 160 to 164 °C (dec.); in that of `O=C(O)c1cn([C@@H]2C[C@H]2F)c2nc(N3C[C@@H]4NCCO[C@@H]4C3)c(F)cc2c1=O` (mixture of isomers) [Example 21, 6-Fluoro-1-(trans-2-fluorocyclopropyl)-1,4-dihydro-7-((1R,6s)-2-oxa-5,8-diazabicyclo[4.3.0]non-8-yl)-4-oxo-1,8-naphthyridine-3-carboxylic acid], 310 to 314 °C (dec.). `O=C(O)c1cn(C2CC2)c2c(Cl)c(N3C[C@@H]4CCCN[C@@H]4C3)c(F)cc2c1=O` [BAY Y 3118, 8-chloro-1-cyclopropyl-7-([S,S]-2,8-diazabicyclo[4.3.0]non-8-yl)-6-fluoro-1,4-dihydro-4-oxo-3-quinolinecarboxylic acid, reference compound]: in the data set on H. felis ATCC 49179 (mouse model, monotherapeutic treatment), the “Death of animals on account of toxicity at eradicating treatment” value is listed as “a large part of the animals not dying on account of the toxicity of the compound”. For the same compound, in the data set with H. felis ATCC 49179 (monotherapeutic treatment), the “Eradication of H. felis in the mouse model, monotherapy” value (shortened to “Eradication of H. felis”) is on record as “no eradication of H. felis can be achieved”. Turning to `O=C(O)c1cn(C2CC2)c2cc(N3CCNCC3)c(F)cc2c1=O` [Ciprofloxacin, ciprofloxacin, reference compound], the “Eradication of H. felis” value in the data set on H. felis ATCC 49179 (monotherapeutic treatment) is “not able to lead to an eradication”. In addition, the MIC in the data set on H. pylori NCTC 1163 7 (NCTC1163, read-out: MIC (mg/l) H. pylori 11637) was 0.125 mg/L (≈ 0.377 µM). With `N#Cc1c(N2CC3NCCOC3C2)c(F)cc2c(=O)c(C(=O)O)cn(C3CC3)c12` (centres unmarked) [Example 1A], the “Eradication of the bacterium” value with H. felis ATCC 49179 (10-day treatment of the mice with 2×10 mg/kg) was “eradication of the bacterium”. Besides, in the data set on H. felis ATCC 49179, the Clearance % was 100% and the “Clearance (animals cleared / animals per group)” value is 5/5. For the same compound, in data set [1], the MIC is 0.06 mg/L (≈ 0.151 µM). In the case of `CN1COc2c(N3CC4NCCOC4C3)c(F)cc3c(=O)c(C(=O)O)cn1c23` [Example 2, 9-Fluoro-3-methyl-10-((1S,6S)-2-oxa-5,8-diazabicyclo[4.3.0]non-8-yl)-7-oxo-2,3-dihydro-7H-pyrido[1,2,3-d.e][1,3,4]benzoxadiazine-6-carboxylic acid], in the data set on H. felis ATCC 49179, the Clearance % worked out at 100% and the “Clearance (animals cleared / animals per group)” value is given as 5/5. For the same compound, the MIC in data set [1] amounted to 0.06 mg/L (≈ 0.154 µM). On to `CC(CF)(CF)n1cc(C(=O)O)c(=O)c2cc(F)c(N3C[C@@H]4NCCO[C@@H]4C3)cc21` [Example 4, 1-(1-Fluoromethyl-1-methyl-2-fluoroethyl)-6-fluoro-7-[(1R,6S)-2-oxa-5,8-diazabicyclo[4.3.0]non-8-yl]-1,4-dihydro-4-oxo-3-quinolinecarboxylic acid], for which the MIC in the data set on H. pylori NCTC 1163 7 (setting [2]) was 0.06 mg/L (≈ 0.141 µM); in data set [1], 0.25 mg/L (≈ 0.588 µM). As to `COc1c(N2C[C@@H]3NCCO[C@@H]3C2)c(F)cc2c(=O)c(C(=O)O)cn(C3CC3)c12.Cl` [Example 6, 1-Cyclopropyl-6-fluoro-8-methoxy-7-[(1R,6S)-2-oxa-5,8-diazabicyclo[4.3.0]non-8-yl]-1,4-dihydro-4-oxo-3-quinolinecarboxylic acid hydrochloride], the MIC (in the data set with H. pylori NCTC 1163 7 (setting [2]); in data set [1]) was 0.06 mg/L throughout. For `O=C(O)c1cn(C2CC2)c2c(OC(F)F)c(N3CC4NCCOC4C3)c(F)cc2c1=O` [Example 8, 1-Cyclopropyl-8-difluoromethoxy-6-fluoro-1,4-dihydro-7-((1S,6S)-2-oxa-5 8-diazabicyclo[4.3.0]non-8-yl)-4-oxo-3-quinolinecarboxylic acid], the MIC (with H. pylori NCTC 1163 7 (setting [2]); in data set [1]) was 0.06 mg/L (≈ 0.137 µM) each time. For `COc1c(N2C[C@@H]3NCCO[C@H]3C2)c(F)cc2c(=O)c(C(=O)O)cn(C3CC3)c12.Cl` [Example 13], the MIC worked out at 0.06 mg/L with H. pylori NCTC 1163 7 (setting [2]) and 0.125 mg/L in data set [1]. For the compound `CCn1cc(C(=O)O)c(=O)c2cc(F)c(N3CCNC(C)C3)c(F)c21` (centres unmarked) [lomefloxacin, reference compound], the “Eradication of H. felis” value in the data set on H. felis ATCC 49179 (monotherapeutic treatment) is recorded as “not able to lead to an eradication”.

The values above are taken from patent US6432948B1, “USE OF 7-(2-OXA-5,8-DIAZABICYLCO[4.3.0]NON-8-YL)-QUINOLONE CARBOXYLIC ACID AND NAPHTHYRIDON CARBOXYLIC ACID DERIVATIVES FOR THE TREATMENT OF HELIOBACTER PYLORI INFECTIONS AND ASSOCIATED GASTRODUODENAL DISEASES” (Bayer Aktiengesellschaft, priority 1996, dated 2002).
